Experimental data published in US20230346770A1 (priority 2020, published 2023).
Values after ≈ are worked out from the molar mass of the structure shown. Like-named read-outs stand apart in the source and are kept apart here.

Tests used:
[1] = Phase 1 crossover drug-drug interaction study, plasma pharmacokinetics in healthy adults; settings: for time of peak of mean plasma concentration / pre-dose mean plasma concentration: Treatment B; for time of peak of mean plasma concentration: Day 5, in combination with bedaquiline; for pre-dose mean plasma concentration: Day 5 morning
[2] = updated model from the present study; clarithromycin coadministration
[3] = tested on: M. avium/M. intracellulare (MAC); settings: n=7; cited from earlier work
M. bovis = settings: n=1; cited from earlier work
clinical = settings: human, in vivo
[4] = in vivo; cited from earlier work
[5] = in vivo; cited from earlier work; remark: listed apart in the source
M. kansasii = settings: n=1; cited from earlier work
M. ulcerans = settings: cited from earlier work
M. smegmatis = settings: n=7; cited from earlier work
M. abscessus = settings: cited from earlier work
[6] = tested on: other mycobacterial species; settings: generally, other mycobacterial species incl. M. avium, M. abscessus, M. fortuitum, M. marinum; cited from earlier work
[7] = human; cited from earlier work
M. fortuitum = settings: n=5; cited from earlier work
[8] = human, in vivo
M. marinum = settings: n=1; cited from earlier work
[9] = 8-week bedaquiline regimen in MDR-TB patients, Diacon et al. 2012; cited from earlier work
[10] = Treatment B Day 5: bedaquiline 100 mg + clarithromycin 500 mg every 12 hours, n=16

## CO[C@]1(C)C[C@@H](C)C(=O)[C@H](C)[C@@H](O)[C@](C)(O)[C@@H](C(C)O)OC(=O)[C@H](C)[C@@H](O[C@H]2C[C@@](C)(OC)[C@@H](O)[C@H](C)O2)[C@H](C)[C@H]1O[C@@H]1O[C@H](C)C[C@H](N(C)C)[C@H]1O (stereo partly drawn) [14-OH-Clarithromycin, 14-OH-clarithromycin]
[1]; [10]
  AUC12 h (mean): 10849 ng·h/mL
  Cmax (mean): 1,152 ng/mL
  Cmin (mean): 636 ng/mL
  tmax (median): 2.00 h
[1]
  time of peak of mean plasma concentration: 3 hours post-dose
  pre-dose mean plasma concentration: 797 ng/mL

## COc1nc2ccc(Br)cc2cc1[C@@H](c1ccccc1)[C@@](O)(CCN(C)C)c1cccc2ccccc12 [Bedaquiline, (1R,2S)-1-(6-bromo-2-methoxyquinolin-3-yl)-4-(dimethylamino)-2-naphthalen-1-yl-1-phenylbutan-2-ol]
[2]
  Effect CLR on CL/F, Estimate (RSE, %): −0.37 (11)
[3]
  Bedaquiline MIC Median: 10 ng/mL
  Bedaquiline MIC range: 7 to 10 ng/mL
M. bovis
  Bedaquiline MIC Median: 3 ng/mL
clinical; 100 mg, Cmax (mean)
  Cmax: 1390 ng/mL
clinical; AUC72 h (mean)
  AUC(0-t): 13900 ng·h/mL
clinical; AUC240 h (mean)
  AUC(0-t): 17600 ng·h/mL
clinical; tmax (median)
  Tmax: 5 h
[4]
  terminal elimination half-life: 5.5 months
  time within which Cmax was reached after drug administration: 4 to 6 h
[5]
  improvement of bioavailability when administered with food: approximately 2 fold
M. kansasii
  Bedaquiline MIC Median: 3 ng/mL
M. ulcerans; 1 isolate of M ulcerans
  MIC: 500 ng/mL (≈ 0.9 µM)
M. ulcerans; n=1
  Bedaquiline MIC Median: 500 ng/mL
M. smegmatis
  Bedaquiline MIC Median: 7 ng/mL
  Bedaquiline MIC range: 3 to 100 ng/mL
M. abscessus; 1 isolate of M. abscessus
  MIC: 250 ng/mL (≈ 0.45 µM)
M. abscessus; n=1
  Bedaquiline MIC Median: 250 ng/mL
[6]
  MICs: < 0.1 µg/mL
[7]
  Increase in CL for healthy volunteers or C202, Estimate: 37.5%
M. fortuitum
  Bedaquiline MIC Median: 10 ng/mL
  Bedaquiline MIC range: 7 to 10 ng/mL
[8]
  AUC72h higher in Period 2 compared with Period 1: 5-6%
  AUC240h higher in Period 2 compared with Period 1: 8-18%
  increase of AUC72h with clarithromycin co-administration: 12%
  increase of AUC240h (mean plasma exposure) with clarithromycin co-administration: 14%
  plasma concentration quantifiable until: 240 hours post-dose
  tmax (median): 3.48 h
[8]; 100 mg
  Cmax (mean): 1287 ng/mL
M. marinum
  Bedaquiline MIC Median: 3 ng/mL

## CC[C@H]1OC(=O)[C@H](C)[C@@H](O[C@H]2C[C@@](C)(OC)[C@@H](O)[C@H](C)O2)[C@H](C)[C@@H](O[C@@H]2O[C@H](C)C[C@H](N(C)C)[C@H]2O)[C@](C)(OC)C[C@@H](C)C(=O)[C@H](C)[C@@H](O)[C@]1(C)O [Clarithromycin, clarithromycin, reference compound]
[1]
  time of peak of mean plasma concentration: 3 hours post-dose
  pre-dose mean plasma concentration: 1,281 ng/mL
[1]; human, plasma, oral, AUC12 h (mean), Treatment B Day 5: bedaquiline 100 mg + clarithromycin 500 mg every 12 hours, n=16
  AUC(0-t): 22900 ng·h/mL
[1]; human, plasma, oral, Cmax (mean), Treatment B Day 5: bedaquiline 100 mg + clarithromycin 500 mg every 12 hours, n=16
  Cmax: 2970 ng/mL
[1]; human, plasma, oral, tmax (median), Treatment B Day 5: bedaquiline 100 mg + clarithromycin 500 mg every 12 hours, n=16
  Tmax: 3 h

## CNCC[C@@](O)(c1cccc2ccccc12)[C@H](c1ccccc1)c1cc2cc(Br)ccc2nc1OC [M2]
[9]
  mean terminal elimination half-life: 159 days
